In data set [1] the target is GFP-PfPK9 (Plasmodium falciparum, UniProt Q8IEG4). Description: ATP-competitive binding assay (ATP-sepharose pull-down, FLECS). On the procedure:
Primary small-molecule screen. A small-molecule screen was performed similar to a previously reported fluorescence linked enzyme chemoproteomic strategy (FLECS). Briefly, HEK293-GFP-PfPK9 cells were grown in 182-cm^2 tissue culture flasks (Genesee Scientific) and harvested at ˜80% cell confluency. Before assays the culture medium was aspirated, cells were rinsed with ice cold PBS and then they were removed with a cell scraper. Cells were pelleted by centrifugation (2,000 rpm, 4° C., 2 min) and immediately lysed for assays. The pellet was suspended in buffer A (25 mM HEPES, pH 7.4, 150 mM NaCl, 60 mM MgCl2, 1 mM DTT) with 1 μM microcystin, 0.1% Triton X-100 plus a Roche Complete protease inhibitor tablet and then placed on ice for 30 min to facilitate lysis. The supernatant was collected after centrifugation (4,300 rpm, 4° C., 5 min) and used in subsequent screening and titrations experiments. For screening, the supernatant was added to ATP-sepharose beads (1:1) and incubated with agitation at 4° C. for at least 1 hr to allow binding. Following this incubation, the mixture was centrifuged, the ATP resin was washed with 9 column volumes of buffer A with 1 M NaCl and then 9 column volumes of buffer A. The ATP-sepharose medium was reconstituted as a 1:1 slurry with buffer A and then added to 96-well filter plates (50 μL/well) (Corning #3505) using a multichannel pipette (Rainin). The filter plate was on top of black 96-well catch plates (Corning #3915). An ATP dilution series (1-200 mM) was added to each plate as a positive control and DMSO was the negative control. Compounds and controls were all added to 50 μL per well in buffer A. For screening, compounds were tested in singlicate at 500 μM. The final DMSO concentration in every well was 5%. The fluorescence intensity in each well was measured on an EnVision system. Data analyses of screens were carried out in EXCEL (Microsoft, Corp.) and actives were identified as 2×background signal.
All screening positives that were verified with Western blot analysis were purchased from Enamine or Vitas-M laboratory. The purity of compounds 1-5 (shown below) was verified by high-resolution MS (Agilent). Compounds were tested in 8-point dose-response (0-500 μM) experiments in duplicate, essential as described above. The fluorescence intensity in each well was measured using an EnVision system. Dose-response analysis was performed with GraphPad Prism to acquire EC50 values. Determined EC50 values were used to calculate the observed PfPK9 Kd and reported values are the average of 2-3 independent experiments.
Stable cell line generation. The P. falciparum PK9 gene (PlasmoDB accession #PF3D7_1315100) was cloned into the pEGFP-C1 mammalian expression vector (Clontech) in frame with a […] GFP tag. For screening, HEK293 cells were transfected with the resulting PfPK9-pEGFP-C1 vector to generate HEK293-GFP-PfPK9 expressing cells using X-tremeGENE HP transfection reagent (Roche) per the manufacturer instructions. Briefly, the culture medium was replaced at 48 hours post-transfection with medium supplemented with 1 mg/mL G418 sulfate (Life Technologies) to select for stably transfected cells. Following stable cell selection, fluorescence activated cell sorting (FACS) was used to enrich for GFP-PfPK9 expressing cells. Subsequently, FACS sorted HEK293-GFP-PfPK9 cells were cultured with medium supplemented with 0.5 mg/mL G418 sulfate for all following experiments. Protein expression was verified by Western blot analysis probing for anti-GFP and by fluorescence intensity using an EnVision (PerkinElmer) system.
All 14 positive molecules were also tested for their binding affinity to PfPK9 using an optimized ATP-competitive binding assay. EC50 values ranging from low μM to low mM were observed and these EC50 values were used to derive dissociation constants as described previously. […]

Data set [2] has as its target T1, TAK1-TAB1 (Homo sapiens, UniProt O43318).
T1 sequence (O43318 with tags, fused parts or gaps limits assumed): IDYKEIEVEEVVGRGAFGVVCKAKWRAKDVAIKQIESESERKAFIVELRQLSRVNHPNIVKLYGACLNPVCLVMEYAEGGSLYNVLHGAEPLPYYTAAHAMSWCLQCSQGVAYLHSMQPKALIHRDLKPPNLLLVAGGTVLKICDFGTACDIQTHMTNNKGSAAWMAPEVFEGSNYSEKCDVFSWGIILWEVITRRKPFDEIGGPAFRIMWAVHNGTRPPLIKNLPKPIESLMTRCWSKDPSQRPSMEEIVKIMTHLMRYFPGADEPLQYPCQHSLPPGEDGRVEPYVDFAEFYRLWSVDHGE
Description: TAK1-TAB1 kinase assay ([32P]-ATP). The data set is classed as biochemical. The conditions noted are these: compared to 206 (FIG. 14). How it is done:
Kinase Assay. […] In brief, TAK1-TAB1 (50 ng/well) was incubated with 5 μM ATP containing radiolabeled [^32P]-ATP in the presence of 300 μM substrate peptide ([…]) in a final volume of 40 μl in the presence of buffer (containing 50 mM Tris pH 7.5, 0.1 mM EGTA, 0.1% β-Mercaptoethanol, 10 mM magnesium acetate, 0.5 mM MnCl) and indicated compounds. The reaction was let go for 10 min and stopped with 10 μl concentrated H3PO4. The remaining activity was measured using a scintillation counter. Dose-response curves were repeated 3 times. For kinetic mechanistic studies, experiments were repeated two times and averaged.
A challenge in designing chemical biology probes lies in choosing an appropriate ligand for a protein target and developing chemistry that allows attachment of a linker without disrupting activity of the ligand. […] The focus was on modifying the aminobenzimidazole moiety.

In data set [3] the test system is P. berghei. Kind of data set: Liver stage parasite load, luciferase-expressing P. berghei in HepG2 cells. Format: cell-based, Plasmodium berghei ANKA. To be noted: HepG2 host cells. On the procedure: (§1) Cell-based anti-Plasmodium assays. For liver stage assays, 15,000 HepG2 or 8,000 Huh7 cells/well were added to 384-well microtiter plates using a multichannel pipette (Rainin). After 2 hours at 37° C., compounds (0-100 μM) were added to cells in duplicate or triplicate in a final concentration of 1% DMSO. DMSO was used as the negative control. Following compound incubation at 37° C. for ˜1 hr, harvested luciferase-expressing P. berghei ANKA sporozoites were added to the plates at a density of 3,000 sporozoites/well. P. berghei ANKA sporozoites were obtained from harvesting the salivary glands of infected A. stephensi mosquitoes. The plates were spun for 10 min at 1,000 rpm, and then incubated at 37° C. for ˜45 hrs. […] After ˜45 hours at 37° C., liver cell viability was assessed using CellTiter-Fluor (Promega) and then parasite load was determined using Bright-Glo (Promega). The relative fluorescence and luminescence signal intensity of each well was evaluated with an EnVision System. The luminescence signal in the presence of compounds was normalized to the negative control (DMSO). Dose-response analysis was performed with GraphPad Prism to yield the reported EC50 values.
(§2) Anti-Plasmodium activity was evaluated in the parasite's liver stage using a previously reported high-throughput assay. In this assay, luciferase-expressing P. berghei (murine) parasites are used to infect human hepatoma cells (HepG2) and parasite load is assessed with a luminometer subsequent to evaluating HepG2 viability using a commercially available quantification kit that measures intracellular protease activity.
(§3) Specifically, their ability to inhibit P. berghei infection in two human hepatoma cell lines (HepG2 and Huh7) as well as cytotoxicity against HepG2 and Huh7 cells was determined as described above. Liver cell cytotoxicity was evaluated with two different commercially available assays, one that tests for intracellular protease activity with a fluorescence reporter and another that relies on the luminescent detection of total ATP.

Data set [4] deals with Huh7 cells. Kind of data set: Huh7 cell viability / cytotoxicity. Format: cell-based, human. On the procedure:
as §1, with “After 2 hours at 37° C., compounds (0-100 μM) were added to cells in duplicate or triplicate in a final concentration of 1% DMSO.” left out
as §3

Data set [5] deals with P. berghei. Kind of data set: Liver stage parasite load, luciferase-expressing P. berghei in Huh7 cells. The data set is classed as cell-based, Plasmodium berghei ANKA. To be noted: Huh7 host cells, read-out: IC50 Liver state (Huh7). How it is done:
as §1, §3

In data set [6] the test system is HepG2 cells. Kind of data set: HepG2 cell viability / cytotoxicity. The data set is classed as cell-based, human. How it is done: as §1, §2, §3
The mark [7] stands for this setting: GFP-PfPK9, Kd calculated from EC50 of ATP pull-down dose-response, read-out: Kd, app.
The mark [8] stands for this setting: Plasmodium berghei, HepG2, parasite load.
The mark [9] stands for this setting: Plasmodium berghei, Huh-7, parasite load.

Values joined by “and” are separate entries in the source; they are usually repeats but may differ in a detail not shown here. Equal entries are not always repeated. Where two headings read alike, the source gives them in different places.

Chain of GFP-PfPK9 (Q8IEG4 entry or part of it): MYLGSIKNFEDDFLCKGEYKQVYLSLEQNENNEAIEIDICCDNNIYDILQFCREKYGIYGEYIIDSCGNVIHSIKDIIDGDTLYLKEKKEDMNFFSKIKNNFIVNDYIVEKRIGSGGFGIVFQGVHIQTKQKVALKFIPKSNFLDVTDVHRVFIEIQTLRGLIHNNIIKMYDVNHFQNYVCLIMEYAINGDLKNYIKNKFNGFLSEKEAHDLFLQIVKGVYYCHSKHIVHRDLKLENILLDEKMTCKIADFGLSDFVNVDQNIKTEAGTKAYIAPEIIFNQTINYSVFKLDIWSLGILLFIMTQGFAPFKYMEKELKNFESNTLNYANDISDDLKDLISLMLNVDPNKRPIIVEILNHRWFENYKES

With `Nc1ncnc2c1ncn2[C@@H]1O[C@H](COP(=O)(O)OP(=O)(O)OP(=O)(O)O)[C@@H](O)[C@H]1O` [ATP, reference compound], in data set [1] (native substrate, read-out: apparent Kd of ATP for GFP-PfPK9), the Kd was around 400 µM.
For the compound `NC(=O)c1cccc(C(=O)/N=c2\[nH]c3cc(Br)ccc3s2)c1` [HS-232], the “activity / potency in TAK1 kinase assay” value in data set [2] is “did not show activity”.
On the same count and under the same terms, the value for `CCCn1/c(=N/C(=O)c2cccc(C(N)=O)c2)[nH]c2ccc(/C=C/C(=O)O)cc21` [HS-233] was “slight reduction in potency”; that for `CCCn1/c(=N/C(=O)c2cccc(C(N)=O)c2)[nH]c2cc(/C=C/C(=O)O)ccc21` [HS-234] was “slight reduction in potency”.
On the same count and under the same terms, with `CCCn1/c(=N/C(=O)c2cccc(C(N)=O)c2)[nH]c2cc(/C=C/C(=O)OC)ccc21` [HS-235] the entry was “slight reduction in potency”.
Take `CCCn1c(NC(=O)c2nn(-c3ccccc3)cc2OC)nc2ccccc21` [compound 2]: the Kd in data set [1] (setting [7]) is ~7 µM and 7 µM. Besides, the IC50 came out at 4.5 µM in data set [3] (setting [8]) and 0.09 µM in data set [5] (setting [9]). The “cytotoxic effect on cell viability vs DMSO control” value in data set [4] (30 μM) is “significant cytotoxic effect”; in data set [6] (HepG2, 30 μM), “significant cytotoxic effect”.
Consider `CCCn1c(NC(=O)c2cncn2-c2ccc(F)cc2)nc2ccccc21` [compound 3], for which the Kd in data set [1] (setting [7]) is 0.6 µM. Further, the results for the concentration for half-maximal inhibition (IC50) in data set [3] (setting [8]) and in data set [5] (setting [9]) were 7.3 µM and 4 µM, respectively. Moreover, in data set [6] (concentration not given), the “cytotoxicity in HepG2 cells” value is “moderate cytotoxicity”.
With `O=C(Nc1cccc2cnccc12)C1CCCN(c2cnccn2)C1` (stereo not drawn) [compound 4], in data set [1] (setting [7]), the Kd is 3.2 µM. The half-inhibitory concentration (IC50) in data set [3] (setting [8]) is 55 µM; in data set [3] (parasite load), 54.5 µM; in data set [5] (setting [9]) it was 33 µM; in data set [5] (parasite load), 33.3 µM. For the same compound, the “effect on liver cell viability” value is “neither compound 4 or 5 had any significant effects on cell viability” in data set [4] (concentrations up to 200 μM) and “neither compound 4 or 5 had any significant effects on cell viability” in data set [6] (HepG2, concentrations up to 200 μM).
